Target: human neprilysin (EC 3.4.24.11; NEP) (Homo sapiens (Human), UniProt P08473)
Experiment: In vitro enzyme inhibition assay at human NEP (fluorogenic peptide substrate)
Assay type: biochemical
Conditions: pKi values at human NEP, recombinant human NEP
Experimental: In Vitro Assays for the Quantitation of Inhibitor Potencies at Human and Rat NEP, and Human ACE
The inhibitory activities of compounds at human and rat neprilysin (EC 3.4.24.11; NEP) and human angiotensin converting enzyme (ACE) were determined using in vitro assays as described below.
Recombinant human NEP and recombinant human ACE were obtained commercially (R&D Systems, Minneapolis, Minn., catalog numbers 1182-ZN and 929-ZN, respectively). The fluorogenic peptide substrate Mca-D-Arg-Arg-Leu-Dap-(Dnp)-OH (Medeiros et al. (1997) Braz. J. Med. Biol. Res. 30:1157-62; Anaspec, San Jose, Calif.) and Abz-Phe-Arg-Lys(Dnp)-Pro-OH (Araujo et al. (2000) Biochemistry 39:8519-8525; Bachem, Torrance, Calif.) were used in the NEP and ACE assays respectively.
The assays were performed in 384-well white opaque plates at 37° C. using the fluorogenic peptide substrates at a concentration of 10 μM in Assay Buffer (NEP: 50 mM HEPES, pH 7.5, 100 mM NaCl, 0.01% polyethylene glycol sorbitan monolaurate (Tween-20), 10 μM ZnSO4; ACE: 50 mM HEPES, pH 7.5, 100 mM NaCl, 0.01% Tween-20, 1 μM ZnSO4).
Test compounds were assayed over the range of concentrations from 10 μM to pM. Test compounds were added to the enzymes and incubated for 30 minute at 37° C. prior to initiating the reaction by the addition of substrate. Reactions were terminated after 20 minutes of incubation at 37° C. by the addition of glacial acetic acid to a final concentration of 3.6% (v/v).
Plates were read on a fluorometer with excitation and emission wavelengths set to 320 nm and 405 nm, respectively. Inhibition constants were obtained by nonlinear regression of the data using the equation (GraphPad Software, Inc., San Diego, Calif.): v=v0/[1+(I/K′)] where v is the reaction rate, v0 is the uninhibited reaction rate, I is the inhibitor concentration and K′ is the apparent inhibition constant.
Compounds of the invention were tested in this assay and found to have pKi values at human NEP as follows.

human neprilysin (EC 3.4.24.11; NEP), sequence (P08473 52-750): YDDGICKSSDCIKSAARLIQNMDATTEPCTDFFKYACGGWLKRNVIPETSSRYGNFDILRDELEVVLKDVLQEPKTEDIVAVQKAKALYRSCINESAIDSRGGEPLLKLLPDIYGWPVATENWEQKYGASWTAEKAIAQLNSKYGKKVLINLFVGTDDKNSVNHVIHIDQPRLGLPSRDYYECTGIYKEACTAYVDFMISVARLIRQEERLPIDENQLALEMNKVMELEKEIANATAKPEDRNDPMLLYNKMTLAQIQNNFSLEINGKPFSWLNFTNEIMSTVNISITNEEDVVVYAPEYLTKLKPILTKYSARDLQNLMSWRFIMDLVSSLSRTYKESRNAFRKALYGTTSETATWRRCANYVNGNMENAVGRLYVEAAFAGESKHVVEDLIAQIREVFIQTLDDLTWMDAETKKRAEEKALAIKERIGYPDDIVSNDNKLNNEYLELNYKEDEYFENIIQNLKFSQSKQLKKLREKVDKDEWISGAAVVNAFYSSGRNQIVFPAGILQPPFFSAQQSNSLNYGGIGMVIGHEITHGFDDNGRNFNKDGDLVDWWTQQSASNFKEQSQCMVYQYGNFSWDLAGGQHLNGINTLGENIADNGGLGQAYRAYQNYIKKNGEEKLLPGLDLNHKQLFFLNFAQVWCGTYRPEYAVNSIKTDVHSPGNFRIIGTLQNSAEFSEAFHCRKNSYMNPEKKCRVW

SMILES	Ki [nM]	pKi
O=C(N[C@H](Cc1ccc(-c2ccccc2)cc1)CC(O)C(=O)O)c1nc[nH]n1 (stereo partly drawn) [Example 10-6, (R)-5-Biphenyl-4-yl-2-hydroxy-4-[(1H-[1,2,4]triazole-3-carbonyl)amino]pentanoic acid]	12.6 to 100	
Cc1nc(C(=O)N[C@H](Cc2ccc(-c3ccccc3)cc2)CC(O)C(=O)O)nn1-c1ccc(Cl)cc1 (stereo partly drawn) [Example 10-7, (R)-5-Biphenyl-4-yl-4-{[1-(4-chlorophenyl)-5-methyl-1H-[1,2,4]triazole-3-carbonyl]-amino}-2-hydroxypentanoic acid]	12.6 to 100	
O=C(N[C@H](Cc1ccc(-c2ccccc2)cc1)C[C@@H](O)C(=O)O)c1n[nH]c(O)n1 [Example 10-9, (2R,4R)-5-Biphenyl-4-yl-2-hydroxy-4-[(5-hydroxy-1H-[1,2,4]triazole-3-carbonyl)amino]-pentanoic acid]	1.26 to 10	
O=C(N[C@H](Cc1ccc(-c2ccccc2)cc1)CC(O)C(=O)O)c1nnc(-c2ccccn2)[nH]1 (stereo partly drawn) [Example 10-10, (R)-5-Biphenyl-4-yl-2-hydroxy-4-[(5-pyridin-2-yl-4H-[1,2,4]triazole-3-carbonyl)amino]pentanoic acid]	1.26 to 10	
Cc1n[nH]c(C(=O)N[C@H](Cc2ccc(-c3ccccc3)cc2)CC(O)C(=O)O)n1 (stereo partly drawn) [Example 10-11, (R)-5-Biphenyl-4-yl-2-hydroxy-4-[(5-methyl-2H-[1,2,4]triazole-3-carbonyl)amino]pentanoic acid]	12.6 to 100	
O=C(N[C@H](Cc1ccc(-c2ccccc2)cc1)C[C@@H](O)C(=O)O)c1nc(Cl)n[nH]1 [Example 10-12, (2R,4R)-5-Biphenyl-4-yl-4-[(5-chloro-2H-[1,2,4]triazole-3-carbonyl)amino]-2-hydroxypentanoic acid]	1.26 to 10	
O=C(O)c1cccc(Cn2nnc3cc(C(=O)N[C@H](Cc4ccc(-c5ccccc5)cc4)CC(O)C(=O)O)ccc32)c1 (stereo partly drawn) [Example 11-1, 3-[5-((R)-1-Biphenyl-4-ylmethyl-3-carboxy-3-hydroxypropylcarbamoyl)-benzotriazol-1-ylmethyl]-benzoic acid]	1.26 to 10	
O=C(O)c1ccc(Cn2nnc3cc(C(=O)N[C@H](Cc4ccc(-c5ccccc5)cc4)C[C@H](O)C(=O)O)ccc32)cc1 [Example 11-2, 4-[5-((1R,3S)-1-Biphenyl-4-ylmethyl-3-carboxy-3-hydroxypropylcarbamoyl)-benzotriazol-1-ylmethyl]-benzoic acid]	12.6 to 100	
O=C(N[C@H](Cc1ccc(-c2ccccc2)cc1)CC(O)C(=O)O)c1ccc2[nH]nnc2c1 (stereo partly drawn) [Example 11-3, (R)-4-[(1H-Benzotriazole-5-carbonyl)amino]-5-biphenyl-4-yl-2-hydroxypentanoic acid]	1.26 to 10	
O=C(N[C@H](Cc1ccc(-c2ccccc2)cc1)CC(O)C(=O)O)c1cc(F)c2[nH]nnc2c1 (stereo partly drawn) [Example 11-4, (R)-5-Biphenyl-4-yl-4-[(7-fluoro-1H-benzotriazole-5-carbonyl)amino]-2-hydroxy-pentanoic acid]	1.26 to 10	
Cc1cc(C(=O)N[C@H](Cc2ccc(-c3ccccc3)cc2)CC(O)C(=O)O)cc2[nH]nnc12 (stereo partly drawn) [Example 11-6, (R)-5-Biphenyl-4-yl-2-hydroxy-4-[(7-methyl-3H-benzotriazole-5-carbonyl)amino]pentanoic acid]	1.26 to 10	
O=C(N[C@H](Cc1ccc(-c2ccccc2)cc1)CC(O)C(=O)O)c1ccc2[nH]nnc2c1Cl (stereo partly drawn) [Example 11-7, (R)-5-Biphenyl-4-yl-4-[(4-chloro-1H-benzotriazole-5-carbonyl)amino]-2-hydroxy-pentanoic acid]	1.26 to 10	
Cc1nc2ccc(C(=O)N[C@H](Cc3ccc(-c4ccccc4)cc3)CC(O)C(=O)O)cc2o1 (stereo partly drawn) [Example 11-8, (R)-5-Biphenyl-4-yl-2-hydroxy-4-[(2-methyl-benzooxazole-6-carbonyl)-amino]-pentanoic acid]	12.6 to 100	
O=C(N[C@H](Cc1ccc(-c2ccccc2)cc1)CC(O)C(=O)O)c1cnc2[nH]cnc2c1 (stereo partly drawn) [Example 11-9, (R)-5-Biphenyl-4-yl-2-hydroxy-4-[(3H-imidazo[4,5-b]pyridine-6-carbonyl)-amino]-pentanoic acid]	12.6 to 100	
O=C(N[C@H](Cc1ccc(-c2ccccc2)cc1)CC(O)C(=O)O)c1cnc2nn[nH]c2c1 (stereo partly drawn) [Example 11-11, (R)-5-Biphenyl-4-yl-2-hydroxy-4-[(1H-[1,2,3]triazolo[4,5-b]pyridine-6-carbonyl)-amino]-pentanoic acid]	1.26 to 10	
O=C(N[C@H](Cc1ccc(-c2ccccc2)cc1)C[C@H](O)C(=O)O)c1cnc2[nH]nnc2c1 [Example 11-13, (2S,4R)-5-Biphenyl-4-yl-2-hydroxy-4-[(3H-[1,2,3]triazolo[4,5-b]pyridine-6-carbonyl)-amino]-pentanoic acid]		≥9.0
O=C(O)c1ccc(C(=O)N[C@H](Cc2ccc(-c3ccccc3)cc2)CC(O)C(=O)O)o1 (stereo partly drawn) [Example 12-1, 5-((R)-1-Biphenyl-4-ylmethyl-3-carboxy-3-hydroxypropylcarbamoyl)furan-2-carboxylic acid]	1.26 to 10	
O=C(O)c1ccc(C(=O)N[C@H](Cc2ccc(-c3ccccc3)cc2)CC(O)C(=O)O)s1 (stereo partly drawn) [Example 12-2, 5-((R)-1-Biphenyl-4-ylmethyl-3-carboxy-3-hydroxypropylcarbamoyl)thiophene-2-carboxylic acid]	1.26 to 10	
COc1cc(C(=O)N[C@H](Cc2ccc(-c3ccccc3)cc2)C[C@@H](O)C(=O)O)on1 [Example 12-3, (2R,4R)-5-Biphenyl-4-yl-2-hydroxy-4-[(3-methoxyisoxazole-5-carbonyl)amino]-pentanoic acid]	1.26 to 10	
O=C(N[C@H](Cc1ccc(-c2ccccc2)cc1)C[C@@H](O)C(=O)O)c1cc(-c2ccc(Cl)cc2)no1 [Example 12-4, (2R,4R)-5-Biphenyl-4-yl-4-{[3-(4-chlorophenyl)-isoxazole-5-carbonyl]-amino}-2-hydroxy-pentanoic acid]		≥9.0
COc1ccccc1C(=O)Nc1cc(C(=O)N[C@H](Cc2ccc(-c3ccccc3)cc2)C[C@@H](O)C(=O)O)on1 [Example 12-5, (2R,4R)-5-Biphenyl-4-yl-2-hydroxy-4-{[3-(2-methoxy-benzoylamino)-isoxazole-5-carbonyl]-amino}-pentanoic acid]		≥9.0
O=C(N[C@H](Cc1ccc(-c2ccccc2)cc1)C[C@@H](O)C(=O)O)c1cc(-c2ccccc2Cl)no1 [Example 12-6, (2R,4R)-5-Biphenyl-4-yl-4-{[3-(2-chlorophenyl)-isoxazole-5-carbonyl]-amino}-2-hydroxy-pentanoic acid]		≥9.0
O=C(N[C@H](Cc1ccc(-c2ccccc2)cc1)C[C@@H](O)C(=O)O)c1cc(C2CCCCC2)no1 [Example 12-7, (2R,4R)-5-Biphenyl-4-yl-4-[(3-cyclohexyl-isoxazole-5-carbonyl)-amino]-2-hydroxy-pentanoic acid]		≥9.0
O=C(N[C@H](Cc1ccc(-c2ccccc2)cc1)C[C@@H](O)C(=O)O)c1cc(-c2cccc(F)c2)no1 [Example 12-8, (2R,4R)-5-Biphenyl-4-yl-4-{[3-(3-fluorophenyl)-isoxazole-5-carbonyl]-amino}-2-hydroxy-pentanoic acid]		≥9.0
O=C(N[C@H](Cc1ccc(-c2ccccc2)cc1)C[C@@H](O)C(=O)O)c1cc(-c2ccccc2F)no1 [Example 12-9, (2R,4R)-5-Biphenyl-4-yl-4-{[3-(2-fluorophenyl)-isoxazole-5-carbonyl]-amino}-2-hydroxy-pentanoic acid]		≥9.0
Cn1cc(-c2cc(C(=O)N[C@H](Cc3ccc(-c4ccccc4)cc3)C[C@@H](O)C(=O)O)on2)cn1 [Example 12-10, (2R,4R)-5-Biphenyl-4-yl-2-hydroxy-4-{[3-(1-methyl-1H-pyrazol-4-yl)-isoxazole-5-carbonyl]-amino}-pentanoic acid]	1.26 to 10	
O=C(N[C@H](Cc1ccc(-c2ccccc2)cc1)C[C@@H](O)C(=O)O)c1cc(-c2cc(Cl)ccc2Cl)no1 [Example 12-11, (2R,4R)-5-Biphenyl-4-yl-4-{[3-(2,5-dichlorophenyl)-isoxazole-5-carbonyl]-amino}-2-hydroxy-pentanoic acid]		≥9.0
O=C(N[C@H](Cc1ccc(-c2ccccc2)cc1)C[C@@H](O)C(=O)O)c1cc(-c2ccc(Cl)c(Cl)c2)no1 [Example 12-12, (2R,4R)-5-Biphenyl-4-yl-4-{[3-(3,4-dichlorophenyl)-isoxazole-5-carbonyl]-amino}-2-hydroxy-pentanoic acid]	1.26 to 10	
COc1ccccc1-c1cc(C(=O)N[C@H](Cc2ccc(-c3ccccc3)cc2)C[C@@H](O)C(=O)O)on1 [Example 12-13, (2R,4R)-5-Biphenyl-4-yl-2-hydroxy-4-{[3-(2-methoxy-phenyl)-isoxazole-5-carbonyl]-amino}-pentanoic acid]		≥9.0

Reference: US10759813B2, “Neprilysin inhibitors” (THERAVANCE BIOPHARMA R&D IP, LLC, priority 2010, dated 2020)
